Measured values taken from patent US20180319810A1, “SUBSTITUTED BRIDGED UREA ANALOGS AS SIRTUIN MODULATORS” (GlaxoSmithKline Intellectual Property (No.2) Limited, priority 2014, published 2018).

target: T1, SIRT1 (Homo sapiens, UniProt Q96EB6); assay: Trp mass spectrometry assay of SIRT1 activation; assay type: biochemical; conditions: Trp peptide Ac-R-H-K-K(Ac)-W-NH2 0.5 μM, 120 μM βNAD+, 10 nM SIRT1, 25 min, 25° C.
T1 sequence (Q96EB6 1-747): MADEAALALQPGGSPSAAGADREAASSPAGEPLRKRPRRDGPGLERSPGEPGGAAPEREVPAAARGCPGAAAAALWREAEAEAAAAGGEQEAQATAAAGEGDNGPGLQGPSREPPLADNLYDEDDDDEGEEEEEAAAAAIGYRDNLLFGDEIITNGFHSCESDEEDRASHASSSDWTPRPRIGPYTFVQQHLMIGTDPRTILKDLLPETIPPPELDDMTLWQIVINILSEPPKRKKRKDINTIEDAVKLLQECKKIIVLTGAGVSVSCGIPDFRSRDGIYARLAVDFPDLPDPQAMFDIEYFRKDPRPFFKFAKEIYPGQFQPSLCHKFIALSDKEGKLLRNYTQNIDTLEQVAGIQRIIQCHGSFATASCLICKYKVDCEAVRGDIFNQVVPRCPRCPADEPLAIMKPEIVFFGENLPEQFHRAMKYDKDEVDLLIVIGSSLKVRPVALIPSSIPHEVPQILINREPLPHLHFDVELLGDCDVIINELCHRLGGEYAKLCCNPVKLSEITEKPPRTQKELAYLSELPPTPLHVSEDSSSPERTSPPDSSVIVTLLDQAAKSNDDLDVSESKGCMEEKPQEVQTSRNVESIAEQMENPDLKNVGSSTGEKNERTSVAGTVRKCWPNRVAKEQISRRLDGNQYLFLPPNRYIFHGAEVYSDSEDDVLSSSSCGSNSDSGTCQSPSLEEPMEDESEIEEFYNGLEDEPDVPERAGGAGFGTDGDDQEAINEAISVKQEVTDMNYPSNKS

SMILES	TRP Activity (EC1.5, concentration of compound required to increase SIRT1 activity by 50% over control)	TRP MAX RESP (percent maximum fold activation relative to control)
Cc1nc(-c2cccc(C(F)(F)F)c2)nc2c1N1CC[C@@H](C1)N2C(=O)Nc1nccc(OC[C@@H](O)CO)n1 [Example 47, (8S)—N-(4-((S)-2,3-dihydroxypropoxy)pyrimidin-2-yl)-4-methyl-2-(3-(trifluoromethyl)phenyl)-7,8-dihydro-5,8-methanopyrimido[4,5-b][1,4]diazepine-9(6H)-carboxamide]	B (EC1.5 1-25 μM)	A (Fold activation ≥150%)
O=C(Nc1cncc(OC[C@@H](O)CO)c1)N1c2nc(-c3cccc(C(F)(F)F)c3)ncc2N2CCC[C@H]1C2 [Example 94, (9S)—N-(5-((S)-2,3-dihydroxypropoxy)pyridin-3-yl)-2-(3-(trifluoromethyl)phenyl)-8,9-dihydro-6H-5,9-methanopyrimido[4,5-b][1,4]diazocine-10(7H)-carboxamide]	A (EC1.5<1 μM)	A (Fold activation ≥150%)
O=C(Nc1cncc(OC[C@@H](O)CO)n1)N1c2nc(-c3cccc(C(F)(F)F)c3)ncc2N2CC[C@H]1C2 [Example 50, (8S)—N-(6-((S)-2,3-dihydroxypropoxy)pyrazin-2-yl)-2-(3-(trifluoromethyl)phenyl)-7,8-dihydro-5,8-methanopyrimido[4,5-b][1,4]diazepine-9(6H)-carboxamide]	B (EC1.5 1-25 μM)	A (Fold activation ≥150%)
Cc1ccc(-c2ncc3c(n2)N(C(=O)Nc2cccnc2)[C@H]2CCN3C2)cn1 [Example 5, (8S)-2-(6-methylpyridin-3-yl)-N-(pyridin-3-yl)-7,8-dihydro-5,8-methanopyrimido[4,5-b][1,4]diazepine-9(6H)-carboxamide]	B (EC1.5 1-25 μM)	A (Fold activation ≥150%)
Cc1nc(-c2cccc(C(F)(F)F)c2)nc2c1N1CC[C@@H](C1)N2C(=O)Nc1cncc(OC[C@@H](O)CO)c1 [Example 46, (8S)—N-(5-((S)-2,3-dihydroxypropoxy)pyridin-3-yl)-4-methyl-2-(3-(trifluoromethyl)phenyl)-7,8-dihydro-5,8-methanopyrimido[4,5-b][1,4]diazepine-9(6H)-carboxamide]	B (EC1.5 1-25 μM)	A (Fold activation ≥150%)
O=C(Nc1cnnc(OC[C@H](O)CO)c1)N1c2nc(-c3cccc(C(F)(F)F)c3)ncc2N2CCC[C@H]1C2 [Example 110, (9S)—N-(6-((R)-2,3-dihydroxypropoxy)pyridazin-4-yl)-2-(3-(trifluoromethyl)phenyl)-8,9-dihydro-6H-5,9-methanopyrimido[4,5-b][1,4]diazocine-10(7H)-carboxamide]	A (EC1.5<1 μM)	A (Fold activation ≥150%)
O=C(NC1CC1)N1c2nc(-c3cccc(C(F)(F)F)c3)ncc2N2CCC[C@H]1C2 [Example 87, (9S)—N-cyclopropyl-2-(3-(trifluoromethyl)phenyl)-8,9-dihydro-6H-5,9-methanopyrimido[4,5-b][1,4]diazocine-10(7H)-carboxamide]	A (EC1.5<1 μM)	A (Fold activation ≥150%)
Cc1nc(-c2cccc(C(F)(F)F)c2)nc2c1N1CC[C@@H](C1)N2C(=O)Nc1cnc(OC[C@H](O)CO)nc1 [Example 55, (8S)—N-(2-((R)-2,3-dihydroxypropoxy)pyrimidin-5-yl)-4-methyl-2-(3-(trifluoromethyl)phenyl)-7,8-dihydro-5,8-methanopyrimido[4,5-b][1,4]diazepine-9(6H)-carboxamide]	B (EC1.5 1-25 μM)	A (Fold activation ≥150%)
